Target: T1, APOL1 (Homo sapiens, UniProt O14791)
T1 sequence (O14791 1-398 S342G/I384M): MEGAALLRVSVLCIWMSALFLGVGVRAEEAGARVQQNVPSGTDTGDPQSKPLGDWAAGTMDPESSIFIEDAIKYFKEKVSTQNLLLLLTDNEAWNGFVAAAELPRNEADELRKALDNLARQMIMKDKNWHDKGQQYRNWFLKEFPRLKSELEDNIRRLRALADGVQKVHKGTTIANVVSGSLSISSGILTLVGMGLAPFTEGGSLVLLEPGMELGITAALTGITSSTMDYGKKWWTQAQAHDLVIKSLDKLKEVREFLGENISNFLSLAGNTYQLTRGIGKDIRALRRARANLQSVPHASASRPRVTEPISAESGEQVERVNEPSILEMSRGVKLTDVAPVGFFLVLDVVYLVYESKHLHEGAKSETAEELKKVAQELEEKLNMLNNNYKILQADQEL
Test: MultiTox-Fluor Multiplex Cytotoxicity Assay in tet-inducible APOL1 T-REx-HEK293 cells (cell rescue, ratio of dead to live cells)
Format: cell-based
Settings: tet-inducible transgenic APOL1 T-REx-HEK293 cell lines, 50 ng/mL tet, 24 hours; read-out: IP50 (i.e., IC50 for cell proliferation)
How it was run: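 T-REx-HEK293 cells with tet-inducible APOL1 were treated with compound (10 μM top, 10-point 3-fold dilution, duplicate) plus 50 ng/mL tetracycline for 24 h at 37° C, in DMEM with 2% tet-free FBS. MultiTox-Fluor protease signals gave a dead/live ratio, normalized to no tet (100% viability) and tet alone (0%).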

C[C@H]1C[C@@]2(CCN1Cc1cnn(CC(O)C3CCCO3)c1)OCCc1c2sc(C(F)(F)F)c1CO (stereo partly shown) [Compound 964]
IC50: < 100 nM

C[C@H]1C[C@@]2(CCN1Cc1cnn(CC(O)c3ccnn3C)c1)OCCc1c2sc(C(F)(F)F)c1CO (stereo partly shown) [Compound 965]
IC50: < 100 nM

COCCOCC(O)Cn1cc(CN2CC[C@]3(C[C@@H]2C)OCCc2c3sc(C(F)(F)F)c2CO)cn1 (stereo partly shown) [Compound 966]
IC50: < 100 nM

COCCC(O)Cn1cc(CN2CC[C@]3(C[C@@H]2C)OCCc2c3sc(C(F)(F)F)c2CO)cn1 (stereo partly shown) [Compound 967]
IC50: < 100 nM

C[C@H]1C[C@@]2(CCN1Cc1cnn(C[C@H](O)CO)c1)OC[C@@H](O)c1cc(C(F)(F)F)sc12 [Compound 968]
IC50: < 100 nM

C[C@H]1C[C@@]2(CCN1Cc1cnn(C[C@@H](O)CO)c1)OC[C@@H](O)c1cc(C(F)(F)F)sc12 [Compound 969]
IC50: < 100 nM

C[C@H]1C[C@@]2(CCN1Cc1cnn(CC(O)C(N)=O)c1)OC[C@@H](O)c1cc(C(F)(F)F)sc12 (stereo partly shown) [Compound 970]
IC50: < 100 nM

C[C@H]1C[C@@]2(CCN1Cc1cnn(CC(O)C3(O)CCOC3)c1)OC[C@@H](O)c1cc(C(F)(F)F)sc12 (stereo partly shown) [Compound 971]
IC50: < 100 nM

C[C@H]1C[C@@]2(CCN1Cc1cnn(CC(C)(O)CO)c1)OC[C@@H](O)c1cc(C(F)(F)F)sc12 (stereo partly shown) [Compound 972]
IC50: < 100 nM

C[C@H]1C[C@@]2(CCN1Cc1cnn(CC(O)CC3(C#N)CC3)c1)OC[C@@H](O)c1cc(C(F)(F)F)sc12 (stereo partly shown) [Compound 973]
IC50: < 100 nM

C[C@H]1C[C@@]2(CCN1Cc1cnn(CC3(O)CCS(=O)(=O)CC3)c1)OC[C@@H](O)c1cc(C(F)(F)F)sc12 [Compound 974]
IC50: < 100 nM

C[C@H]1C[C@@]2(CCN1Cc1cnn(CC(O)CC3(O)COC3)c1)OC[C@@H](O)c1cc(C(F)(F)F)sc12 (stereo partly shown) [Compound 975]
IC50: < 100 nM

C[C@H]1C[C@@]2(CCN1Cc1cnn(CC(O)CC3(O)CCC3)c1)OC[C@@H](O)c1cc(C(F)(F)F)sc12 (stereo partly shown) [Compound 976]
IC50: < 100 nM

C[C@H]1C[C@@]2(CCN1Cc1cnn(CC(O)CC(C)(C)O)c1)OC[C@@H](O)c1cc(C(F)(F)F)sc12 (stereo partly shown) [Compound 977]
IC50: < 100 nM

C[C@H]1C[C@@]2(CCN1Cc1cnn(CC(O)C3(O)CCOCC3)c1)OC[C@@H](O)c1cc(C(F)(F)F)sc12 (stereo partly shown) [Compound 978]
IC50: < 100 nM

C[C@H]1C[C@@]2(CCN1Cc1cnn(CC(O)C3(O)CCC3)c1)OC[C@@H](O)c1cc(C(F)(F)F)sc12 (stereo partly shown) [Compound 979]
IC50: < 100 nM

CC(=CC(O)Cn1cc(CN2CC[C@]3(C[C@@H]2C)OC[C@@H](O)c2cc(C(F)(F)F)sc23)cn1)C1CC1 (stereo partly shown) [Compound 980]
IC50: 100 to 500 nM

C[C@H]1C[C@@]2(CCN1Cc1cnn(CC3CC4(CC4)C(=O)O3)c1)OCCc1c2sc(C(F)(F)F)c1CO (stereo partly shown) [Compound 981]
IC50: < 100 nM

C[C@H]1C[C@@]2(CCN1Cc1cnn(CC3CC4(CCC4)C(=O)O3)c1)OCCc1c2sc(C(F)(F)F)c1CO (stereo partly shown) [Compound 982]
IC50: < 100 nM

C[C@H]1C[C@@]2(CCN1Cc1cnn(CC3CC(C)(C)C(=O)O3)c1)OCCc1c2sc(C(F)(F)F)c1CO (stereo partly shown) [Compound 983]
IC50: < 100 nM

C[C@H]1C[C@@]2(CCN1Cc1cnn(CC3CC4(CCOCC4)C(=O)O3)c1)OCCc1c2sc(C(F)(F)F)c1CO (stereo partly shown) [Compound 984]
IC50: < 100 nM

C[C@H]1C[C@@]2(CCN1Cc1cnn(C[C@@H](O)C(N)=O)c1)OCCc1c2sc(C(F)(F)F)c1CO [Compound 985, (2R)-2-hydroxy-3-[4-[[(2′S, 7R)-3-(hydroxymethyl)-2′-methyl-2-(trifluoromethyl)spiro[4,5-dihydrothieno[2,3-c]pyran-7,4′-piperidine]-1′-yl]methyl]pyrazol-1-yl]propanamide]
IC50: < 100 nM

CNC(=O)[C@H](O)Cn1cc(CN2CC[C@]3(C[C@@H]2C)OCCc2c3sc(C(F)(F)F)c2CO)cn1 [Compound 986, (2R)-2-hydroxy-3-[4-[[(2′S, 7R)-3-(hydroxymethyl)-2′-methyl-2-(trifluoromethyl)spiro[4,5-dihydrothieno[2,3-c]pyran-7,4′-piperidine]-1′-yl]methyl]pyrazol-1-yl]-N-methyl-propanamide]
IC50: < 100 nM

C[C@H]1C[C@@]2(CCN1Cc1cnn(C[C@@H](O)C(=O)N(C)C)c1)OCCc1c2sc(C(F)(F)F)c1CO [Compound 987, (2R)-2-hydroxy-3-[4-[[(2′S, 7R)-3-(hydroxymethyl)-2′-methyl-2-(trifluoromethyl)spiro[4,5-dihydrothieno[2,3-c]pyran-7,4′-piperidine]-1′-yl]methyl]pyrazol-1-yl]-N,N-dimethyl-propanamide]
IC50: < 100 nM

CCOC(=O)C(C)(O)Cn1cc(CN2CC[C@]3(C[C@@H]2C)OCCc2c3sc(C(F)(F)F)c2CO)cn1 (stereo partly drawn) [Compound 988, Ethyl 2-hydroxy-3-[4-[[(2′S, 7R)-3-(hydroxymethyl)-2′-methyl-2-(trifluoromethyl)spiro[4,5-dihydrothieno[2,3-c]pyran-7,4′-piperidine]-1′-yl]methyl]pyrazol-1-yl]-2-methyl-propanoate]
IC50: < 100 nM

C[C@H]1C[C@@]2(CCN1Cc1cnn(CC(C)(O)C(N)=O)c1)OCCc1c2sc(C(F)(F)F)c1CO (stereo partly drawn) [Compound 989, 2-Hydroxy-3-[4-[[(2′S, 7R)-3-(hydroxymethyl)-2′-methyl-2-(trifluoromethyl)spiro[4,5-dihydrothieno[2,3-c]pyran-7,4′-piperidine]-1′-yl]methyl]pyrazol-1-yl]-2-methyl-propanamide]
IC50: < 100 nM

CNC(=O)C(C)(O)Cn1cc(CN2CC[C@]3(C[C@@H]2C)OCCc2c3sc(C(F)(F)F)c2CO)cn1 (stereo partly drawn) [Compound 990, 2-Hydroxy-3-[4-[[(2′S, 7R)-3-(hydroxymethyl)-2′-methyl-2-(trifluoromethyl)spiro[4,5-dihydrothieno[2,3-c]pyran-7,4′-piperidine]-1′-yl]methyl]pyrazol-1-yl]-N,2-dimethyl-propanamide]
IC50: < 100 nM

C[C@H]1C[C@@]2(CCN1Cc1cnn(CC(C)(O)C(=O)NC3CC3)c1)OCCc1c2sc(C(F)(F)F)c1CO (stereo partly drawn) [Compound 991, N-cyclopropyl-2-hydroxy-3-[4-[[(2′S, 7R)-3-(hydroxymethyl)-2′-methyl-2-(trifluoromethyl)spiro[4,5-dihydrothieno[2,3-c]pyran-7,4′-piperidine]-1′-yl]methyl]pyrazol-1-yl]-2-methyl-propanamide]
IC50: < 100 nM

C[C@H]1C[C@@]2(CCN1Cc1cnn(C[C@@H](O)C(N)=O)c1)OC[C@@H](O)c1cc(C(F)(F)F)sc12 [Compound 992, (2R)-2-hydroxy-3-[4-[[(2′S,4S,7R)-4-hydroxy-2′-methyl-2-(trifluoromethyl)spiro[4,5-dihydrothieno[2,3-c]pyran-7,4′-piperidine]-1′-yl]methyl]pyrazol-1-yl]propanamide]
IC50: < 100 nM

CNC(=O)[C@H](O)Cn1cc(CN2CC[C@]3(C[C@@H]2C)OC[C@@H](O)c2cc(C(F)(F)F)sc23)cn1 [Compound 993]
IC50: 100 to 500 nM

C[C@H]1C[C@@]2(CCN1Cc1cnn(C[C@@H](O)C(=O)N(C)C)c1)OC[C@@H](O)c1cc(C(F)(F)F)sc12 [Compound 994]
IC50: < 100 nM

C[C@H]1C[C@@]2(CCN1Cc1cnn(C[C@@H](O)C(=O)NC3CC3)c1)OC[C@@H](O)c1cc(C(F)(F)F)sc12 [Compound 995]
IC50: < 100 nM

C[C@H]1C[C@@]2(CCN1Cc1cnn(C[C@H](O)C(N)=O)c1)OC[C@@H](O)c1cc(C(F)(F)F)sc12 [Compound 996]
IC50: < 100 nM

CNC(=O)[C@@H](O)Cn1cc(CN2CC[C@]3(C[C@@H]2C)OC[C@@H](O)c2cc(C(F)(F)F)sc23)cn1 [Compound 997]
IC50: < 100 nM

C[C@H]1C[C@@]2(CCN1Cc1cnn(C[C@H](O)C(=O)N(C)C)c1)OC[C@@H](O)c1cc(C(F)(F)F)sc12 [Compound 998]
IC50: < 100 nM

C[C@H]1C[C@@]2(CCN1Cc1cnn(C[C@H](O)C(=O)NC3CC3)c1)OC[C@@H](O)c1cc(C(F)(F)F)sc12 [Compound 999]
IC50: < 100 nM

C[C@H]1C[C@@]2(CCN1Cc1cn(C(C)(C)CO)nn1)OCCc1c2sc(C(F)(F)F)c1CO [Compound 1000, 2-[4-[[(2′S, 7R)-3-(hydroxymethyl)-2′-methyl-2-(trifluoromethyl)spiro[4,5-dihydrothieno[2,3-c]pyran-7,4′-piperidine]-1′-yl]methyl]triazol-1-yl]-2-methyl-propan-1-ol]
IC50: 500 to 1000 nM

C[C@H]1C[C@@]2(CCN1Cc1cn(CCCS(C)(=O)=O)nn1)OCCc1c2sc(C(F)(F)F)c1CO [Compound 1001]
IC50: 100 to 500 nM

CC(O)Cn1cc(CN2CC[C@]3(C[C@@H]2C)OCCc2c3sc(C(F)(F)F)c2CO)nn1 (stereo partly shown) [Compound 1002]
IC50: < 100 nM

C[C@H]1C[C@@]2(CCN1Cc1cn(CC(C)(CO)CO)nn1)OCCc1c2sc(C(F)(F)F)c1CO [Compound 1003]
IC50: < 100 nM

C[C@H]1C[C@@]2(CCN1Cc1cn(C3CCOCC3)nn1)OCCc1c2sc(C(F)(F)F)c1CO [Compound 1004]
IC50: 100 to 500 nM

C[C@H]1C[C@@]2(CCN1Cc1cn(CC(O)C(C)(C)O)nn1)OCCc1c2sc(C(F)(F)F)c1CO (stereo partly shown) [Compound 1005]
IC50: < 100 nM

COC(=O)c1c(C(F)(F)F)sc2c1CCO[C@@]21CCN(Cc2cn(CCS(C)(=O)=O)nn2)[C@@H](C)C1 [Compound 1006, Methyl (2′S,7R)-2′-methyl-1′-[[1-(2-methylsulfonylethyl)triazol-4-yl]methyl]-2-(trifluoromethyl)spiro[4,5-dihydrothieno[2,3-c]pyran-7,4′-piperidine]-3-carboxylate]
IC50: 100 to 500 nM
